Tests used:
LXF-289 = assay: Growth inhibition of cancer cell lines, 72 hrs (CellTiter-Glo); assay type: cell-based; details: Homo sapiens, lung, adenocarcinoma
Experimental: (§1) Example C: Inhibition of Cancer Cell Growth by Treatment with PARP7 Inhibitors
(§2) Table A-2 and Table A-3 (below) represents the concentration that causes 50% growth inhibition (GI50) in a panel of cancer cell lines with Compound 18B and Compound 561. Cells were plated into 384-well plates at a pre-specified density in fetal bovine serum-containing media. Cells were treated with compound or vehicle (DMSO) 24 hrs later, and a day zero plate was collected for analysis. Test compound plates were incubated continuously for 72 hrs (Table A-2) or 144 hours (Table A-3) cell growth was assessed using a luminescent cell viability assay (CellTiter-Glo, Promega). The GI50was determined by correcting for the cell count at time zero (time of treatment) and plotting data as percent growth relative to vehicle-treated cells.

OVISE = assay: as above; assay type: cell-based; details: ovary, clear cell carcinoma
Experimental: as §1, §2

LUDLU-l = assay: as above; assay type: cell-based; details: lung, squamous cell carcinoma
Experimental: as §1, §2

T3M-10 = assay: as above; assay type: cell-based; details: lung, large cell carcinoma
Experimental: as §1, §2

NCI-H1963 = assay: as above; assay type: cell-based; details: Homo sapiens, lung, small cell carcinoma
Experimental: as §1, §2

CAL 27 = assay: as above; assay type: cell-based; details: Homo sapiens, upper aerodigestive tract, squamous cell carcinoma
Experimental: as §1, §2

Hs 578T = assay: as above; assay type: cell-based; details: Homo sapiens, breast, ductal carcinoma
Experimental: as §1, §2

TYK-nu = assay: as above; assay type: cell-based; details: ovary, undifferentiated carcinoma
Experimental: as §1, §2

HCC1599 = assay: as above; assay type: cell-based; details: Homo sapiens, breast, ductal carcinoma
Experimental: as §1, §2

NCI-H2228 = assay: as above; assay type: cell-based; details: Homo sapiens, lung, adenocarcinoma
Experimental: as §1, §2

Panc 03.27 = assay: as above; assay type: cell-based; details: Homo sapiens, PANC-03-27, pancreas, ductal carcinoma
Experimental: as §1, §2

SCC-25 = assay: as above; assay type: cell-based; details: Homo sapiens, upper aerodigestive tract, squamous cell carcinoma
Experimental: as §1, §2

NCI-H2081 = assay: as above; assay type: cell-based; details: Homo sapiens, lung, not specified
Experimental: as §1, §2

COR-L105 = assay: as above; assay type: cell-based; details: Homo sapiens, lung, adenocarcinoma
Experimental: as §1, §2

NCI-H2347 = assay: as above; assay type: cell-based; details: Homo sapiens, lung, adenocarcinoma
Experimental: as §1, §2

EBC-1 = assay: as above; assay type: cell-based; details: Homo sapiens, lung, squamous cell carcinoma
Experimental: as §1, §2

HCC827 = assay: as above; assay type: cell-based; details: Homo sapiens, lung, adenocarcinoma
Experimental: as §1, §2

TE-8 = assay: as above; assay type: cell-based; details: Homo sapiens, oesophagus, squamous cell carcinoma
Experimental: as §1, §2

GSU = assay: as above; assay type: cell-based; details: stomach, adenocarcinoma
Experimental: as §1, §2

HDQ-P1 = assay: as above; assay type: cell-based; details: Homo sapiens, breast, ductal carcinoma
Experimental: as §1, §2

MDA-MB-468 = assay: as above; assay type: cell-based; details: Homo sapiens, breast, not specified
Experimental: as §1, §2

JHOS-2 = assay: as above; assay type: cell-based; details: ovary, adenocarcinoma
Experimental: as §1, §2

HCC-1195 = assay: as above; assay type: cell-based; details: lung, mixed adenosquamous carcinoma
Experimental: as §1, §2

NCI-H647 = assay: as above; assay type: cell-based; details: Homo sapiens, lung, mixed adenosquamous carcinoma
Experimental: as §1, §2

EN = assay: as above; assay type: cell-based; details: endometrium, not specified
Experimental: as §1, §2

YD-10B = assay: as above; assay type: cell-based; details: upper aerodigestive tract, squamous cell carcinoma
Experimental: as §1, §2

Caki-1 = assay: as above; assay type: cell-based; details: Homo sapiens, kidney, clear cell renal cell carcinoma
Experimental: as §1, §2

YH-13 = assay: as above; assay type: cell-based; details: central nervous system, astrocytoma Grade IV
Experimental: as §1, §2

NCI-H441 = assay: as above; assay type: cell-based; details: Homo sapiens, lung, adenocarcinoma
Experimental: as §1, §2

CFPAC-1 = assay: as above; assay type: cell-based; details: Homo sapiens, pancreas, ductal carcinoma
Experimental: as §1, §2

PARP7 = PARP7 (Homo sapiens (Human), UniProt Q7Z3E1); assay: Enzymatic assay for inhibition of PARP7: TR-FRET displacement of biotinylated Probe A from the TIPARP active site; assay type: binding; details: Table A-1
Sequence of PARP7 (Q7Z3E1 whole entry): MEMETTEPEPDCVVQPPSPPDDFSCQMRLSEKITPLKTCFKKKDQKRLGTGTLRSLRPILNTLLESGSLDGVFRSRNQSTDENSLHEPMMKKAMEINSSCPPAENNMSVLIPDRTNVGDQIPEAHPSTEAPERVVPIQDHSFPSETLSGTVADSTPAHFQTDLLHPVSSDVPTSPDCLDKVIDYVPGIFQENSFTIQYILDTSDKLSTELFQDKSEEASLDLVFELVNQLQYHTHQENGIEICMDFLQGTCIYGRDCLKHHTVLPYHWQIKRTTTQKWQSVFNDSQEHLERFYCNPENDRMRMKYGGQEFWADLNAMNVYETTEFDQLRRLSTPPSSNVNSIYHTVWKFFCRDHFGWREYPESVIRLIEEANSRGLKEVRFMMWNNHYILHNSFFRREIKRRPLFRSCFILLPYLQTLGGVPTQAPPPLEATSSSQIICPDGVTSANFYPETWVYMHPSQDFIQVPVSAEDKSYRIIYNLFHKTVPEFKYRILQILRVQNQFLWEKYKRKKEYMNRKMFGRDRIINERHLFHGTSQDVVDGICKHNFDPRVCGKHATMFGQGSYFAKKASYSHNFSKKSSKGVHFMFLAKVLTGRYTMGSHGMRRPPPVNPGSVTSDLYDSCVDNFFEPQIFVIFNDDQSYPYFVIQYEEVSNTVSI
Summary of the method: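 Compounds were tested as dose-response series, and reactions were incubated a further 30 min at 25° C. TR-FRET was read at 320 nm excitation with 615 and 665 nm emission after a 90 μs delay. The 665/615 ratio gave the TIPARP–Probe A complex, and % inhibition was fitted against concentration.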

GI50 (LXF-289): 100 to 1000 nM | GI50 (OVISE): 100 to 1000 nM | GI50 (LUDLU-l): 100 to 1000 nM | GI50 (T3M-10): < 100 nM | GI50 (NCI-H1963): < 100 nM | GI50 (CAL 27): < 100 nM | GI50 (Hs 578T): 100 to 1000 nM | GI50 (TYK-nu): < 100 nM | GI50 (HCC1599): 100 to 1000 nM | GI50 (NCI-H2228): 100 to 1000 nM | GI50 (Panc 03.27): < 100 nM | GI50 (SCC-25): < 100 nM | GI50 (NCI-H2081): 100 to 1000 nM | GI50 (COR-L105): 100 to 1000 nM | GI50 (NCI-H2347): < 100 nM | GI50 (EBC-1): < 100 nM | GI50 (HCC827): 100 to 1000 nM | GI50 (TE-8): < 100 nM | GI50 (GSU): < 100 nM | GI50 (HDQ-P1): 100 to 1000 nM | GI50 (MDA-MB-468): < 100 nM | GI50 (JHOS-2): < 100 nM | GI50 (HCC-1195): 100 to 1000 nM | GI50 (NCI-H647): < 100 nM | GI50 (EN): 100 to 1000 nM | GI50 (YD-10B): < 100 nM | GI50 (Caki-1): < 100 nM | GI50 (YH-13): < 100 nM | GI50 (NCI-H441): 100 to 1000 nM | GI50 (CFPAC-1): 100 to 1000 nM | IC50 (PARP7): < 100 nM
Structure (SMILES): N#Cc1ccc(N2CCN(C(=O)c3cccc(OC[C@@H]4c5ccccc5CN4c4cn[nH]c(=O)c4C(F)(F)F)c3)CC2)nc1 (single isomer, unassigned) [Example 18 Isomer B]

Reference: patent US10550105B2 (Ribon Therapeutics Inc., priority 2018, dated 2020)
